Assay results taken from US20070010543A1, “Compositions and methods for treating gastrointestinal hypomotility and associated disorders” (Dynogen Pharmaceuticals, Inc., priority 2005, published 2007).
Where “and” joins values, the source holds several entries; their conditions need not be identical. Identical values can stand only once.

Tested on: guinea-pig distal colon
Experiment: Fecal pellet propulsion velocity assay, guinea pig ex vivo colon preparation
From the text: Hartley guinea pigs of either sex (Charles River Laboratories, Wilmington, Mass.) weighing approximately 300 grams were used in all experiments described herein. Segments of distal colon were taken from guinea pigs following euthanasia by isoflurane anesthesia and exsanguination. Colon segments were immediately placed on ice-cold physiological saline solution (PSS, see below for composition).
PSS was made daily and consisted of (in mM) 119 NaCl, 4.7 KCl, 24 NaHCO3, 1.2 KH2PO4, 2.5 CaCl2, 1.2 MgSO4, 11 glucose, and aerated with 95% O2-5% CO2 to obtain pH 7.4. Morphine (Sigma Chemical Company, St. Louis, Mo.), Naltrexone (Sigma Chemical Company, St. Louis, Mo.) or DDP733 (Dynogen Pharmaceuticals, Inc., Waltham, Mass.) were dissolved as stock solutions in distilled water.
Data are reported as means±SEM. Data were analyzed by t-test.
Segments of guinea-pig distal colon (5-8 cms long) were pinned out in an organ bath with pins attached to small pieces of mesentery adhering to the wall of the gut at intervals of approximately 1.5-2 cms. Colonic segments were superfused with oxygenated PSS warmed to about 37° C. An equilibration period was allowed, during which time the gut developed spontaneous tone and emptied its luminal contents. Following the equilibration period, a PE-50 catheter was inserted approximately 1 to 2 cms into the lumen via the anal end of the colon. Oxygenated PSS was perfused intraluminally at a rate of about 0.15 ml/min for a period of 30 minutes. At this point, a dried fecal pellet that had been coated with a synthetic polymer to maintain its structural integrity, was placed into the oral end of the colon, and the intraluminal catheter was advanced to the distal edge of the fecal pellet. The amount of time for the fecal pellet to move about 2 to 3 cms in the aboral direction was measured within the center of the colon segment using a custom computer program and digital video camera. A total of three motility trials were conducted in each experiment under baseline conditions, with a five-minute recovery period between each trial. Motility rates from these first three trials were averaged together to give a measure of baseline motility. After the third baseline trial, a 30-minute inter-trial equilibration period was allowed
At the end of the equilibration period, a fecal pellet was inserted into the oral end of the colon, and motility rate was assessed as before. A total of three motility trials were performed, with a 5-minute recovery period between each trial. Intraluminal infusion of naltrexone or DDP733 was resumed after each trial. Each colon was exposed to only a single concentration of naltrexone or DDP733.
Morphine (0.01 to 10 μM) was added to the superfusate (bath solution) during the inter-trial equilibration period, e.g., 15 minutes prior to the start of motility trials. Morphine remained in the bath solution for the remainder of the experiment. At the end of the equilibration period, a fecal pellet was inserted into the oral end of the colon, and motility rate was assessed as before. A total of three motility trials were performed, with a 5-minute recovery period between each trial. Each colon was exposed to only a single concentration of morphine.
Naltrexone was also infused intraluminally at this point. […] At the end of the equilibration period, a fecal pellet was inserted into the oral end of the colon, and motility rate was assessed as before.

Compound | effect on morphine-induced decrease in motility (in words, summary of Table II) | Motility % control (Morphine 0.10 μM in bath, single preparations) | effect on motility (in words, summary of Table II)
O=C(N[C@H]1CN2CCC1CC2)c1c[nH]c2ccsc2c1=O [DDP733, (R)-N-1-azabicyclo[2.2.2]oct-3-yl-4,7-dihydro-7-oxothieno[3,2-b]pyridine-6-carboxamide] | diminished | – | –
CN1CC[C@]23c4c5ccc(O)c4O[C@H]2[C@@H](O)C=C[C@H]3[C@H]1C5 [Morphine] | – | 72 % control and 57 % control and 73 % control and 78 % control | decrease in motility
